Measurements taken from US10328027B2, “Assisted particle size reduction process” (HOVIONE INTERNATIONAL LTD, priority 2014, dated 2019).
Values belong to the molecule of their own block, whether it stands above or below them.

Experiment: Particle size distribution (Dv10, Dv50, Dv90, span) of processed API particles
Type: physicochemical
Excerpt: The most common approach for expressing particle size results is to report Dv10, Dv50, and Dv90 values based on a volume distribution. The span calculation [(Dv90−Dv10)/Dv50] is the most common format to express distribution width.
The terms Dv10, Dv50, and Dv90 as discussed herein are known to those skilled in the art. Dv50 refers to the maximum particle diameter below which 50% of the sample volume exists. Dv90 refers to the maximum particle diameter below which 90% of the sample volume exists. Dv10 refers to the maximum particle diameter below which 10% of the sample volume exists. The term particle size distribution span refers to the result of the calculation [(Dv90−Dv10)/Dv50].

[1] = Comparison, process of WO2011131947 (water), product isolated by spray drying (45° C.)
[2] = Comparison, process of WO2011131947, suspension in anti-solvent water, after size reduction (750 bar, 45 cycles)
[3] = Example 2, invention, product isolated by spray drying (45° C.)
[4] = Example 2, invention, suspension in water/acetone, after particle size reduction (microfluidizer 750 bar, 45 cycles)
[5] = Example 2, invention, water/acetone, after aging for 22 hours
[6] = Example 1, after aging for 20 hours without stirring at room temperature
[7] = Example 1, product isolated by spray drying (100° C.) after distillation to approx. 100% heptane
[8] = Example 1, suspension in n-heptane/ethyl acetate, after particle size reduction (microfluidizer 400 bar, 50 cycles)

Dv10 [1]: 0.99 μm | Dv50 [1]: 1.94 μm | Dv90 [1]: 3.60 μm | span [(Dv90-Dv10)/Dv50] [1]: 1.4 | Dv10 [2]: 1.28 μm | Dv50 [2]: 2.44 μm | Dv90 [2]: 4.45 μm | span [(Dv90-Dv10)/Dv50] [2]: 1.3 | Dv10 [3]: 1.38 μm | Dv50 [3]: 2.42 μm | Dv90 [3]: 4.18 μm | span [(Dv90-Dv10)/Dv50] [3]: 1.2 | Dv10 [4]: 0.92 μm | Dv50 [4]: 1.81 μm | Dv90 [4]: 3.39 μm | span [(Dv90-Dv10)/Dv50] [4]: 1.4 | Dv10 [5]: 1.42 μm | Dv50 [5]: 2.53 μm | Dv90 [5]: 4.43 μm | span [(Dv90-Dv10)/Dv50] [5]: 1.2
SMILES: CCC(=O)O[C@]1(C(=O)SCF)[C@H](C)C[C@H]2[C@@H]3C[C@H](F)C4=CC(=O)C=C[C@]4(C)[C@@]3(F)[C@@H](O)C[C@@]21C [Fluticasone propionate]

SMILES: C[N+]1(C)[C@@H]2C[C@@H](OC(=O)C(O)(c3cccs3)c3cccs3)C[C@H]1[C@@H]1O[C@@H]12 [Tiotropium Bromide]
Dv10 [6]: 0.78 μm | Dv50 [6]: 3.33 μm | Dv90 [6]: 7.45 μm | span [(Dv90-Dv10)/Dv50] [6]: 2.0 | Dv10 [7]: 0.83 μm | Dv50 [7]: 3.02 μm | Dv90 [7]: 7.05 μm | span [(Dv90-Dv10)/Dv50] [7]: 2.1 | Dv10 [8]: 0.67 μm | Dv50 [8]: 2.98 μm | Dv90 [8]: 7.09 μm | span [(Dv90-Dv10)/Dv50] [8]: 2.2
